For one data set, the system named is RAW264.7 macrophages. Put plainly: Inhibition of IFNγ-induced NO production (Griess reagent). In kind it is cell-based. Conditions: Mus musculus; RAW264.7, 20 ng/mL IFNγ, 2 h pre-treatment, 24 h. How it is done:
RAW264.7 macrophages were pre-treated with DMSO or drugs at various concentrations (nM) for 2 hours, and subsequently treated with 20 ng/ml IFNγ for 24 hours. NO concentration in media was determined using a Griess reagent system; cell viability was determined using WST-1 reagent. The betulinic acid derivatives are identified by their TP numbers, as shown herein and described in Example 5.
Nitric Oxide Production and Cell Viability. RAW264.7 macrophages were pre-treated with DMSO or drugs for 2 hours, and subsequently treated with recombinant mouse IFN-γ (Sigma) for 24 hours. NO concentration in media was determined using the Griess reagent system (Promega). Cell viability was determined using WST-1 reagent (Roche).

Data set [1] can be described thus: TP levels in mouse brain after dietary dosing (LC/MS). In kind it is in vivo. Conditions: CD-1 mice fed 200 or 400 mg/kg diet for 3.5 days; compared with TP-319. Here is the method:
CD-1 mice were fed either 200 or 400 mg/kg diet of either TP-319 or TP-500 for 3.5 days, and TP levels in the brains of the mice were analyzed by LC/MS. The structures of TP-319 and TP-500 are provided herein.

Take `C=C(C)[C@@H]1CC[C@]2(C(=O)n3ccnc3)CC[C@]3(C)[C@H](CC[C@@H]4[C@@]5(C)C=C(C#N)C(=O)C(C)(C)[C@@H]5CC[C@]43C)[C@@H]12` [TP-292]: the IC50 in the data set on RAW264.7 macrophages is 71 to 100 nM.
With `C=C(C)[C@@H]1CC[C@]2(C(=O)NCC)CC[C@]3(C)[C@H](CCC4[C@@]5(C)C=C(C#N)C(=O)C(C)(C)[C@@H]5CC[C@]43C)[C@@H]12` (stereo partly shown) [TP-321, reference compound], the 50% inhibitory concentration (IC50) in the data set with RAW264.7 macrophages was 88 nM.
On the same count and under the same terms, for `C=C(C)[C@@H]1CC[C@]2(C(=O)NCC(F)(F)F)CC[C@]3(C)[C@H](CC[C@@H]4[C@@]5(C)C=C(C#N)C(=O)C(C)(C)[C@@H]5CC[C@]43C)[C@@H]12` [TP-342, 2-Cyano-N-(2,2,2-trifluoroethyl)-3-oxolupa-1,20(29)-dien-28-amide] the value was 380 nM.
On to `C=C(C)[C@@H]1CC[C@]2(C(=O)NCC(F)F)CC[C@]3(C)[C@H](CC[C@@H]4[C@@]5(C)C=C(C#N)C(=O)C(C)(C)[C@@H]5CC[C@]43C)[C@@H]12` [TP-343, 2-Cyano-N-(2,2-difluoroethyl)-3-oxolupa-1,20(29)-dien-28-amide], for which, in the data set on RAW264.7 macrophages, the IC50 came to 130 nM.
`C=C(C)[C@@H]1CC[C@]2(C(=O)NCCF)CC[C@]3(C)[C@H](CC[C@@H]4[C@@]5(C)C=C(C#N)C(=O)C(C)(C)[C@@H]5CC[C@]43C)[C@@H]12` [TP-344, 2-Cyano-N-(2-fluoroethyl)-3-oxolupa-1,20(29)-dien-28-amide]: the IC50 in the data set on RAW264.7 macrophages came out at 180 nM.
Same read-out and setting: for `C=C(C)[C@@H]1CC[C@]2(C#N)CC[C@]3(C)[C@H](CC[C@@H]4[C@@]5(C)C=C(C#N)C(=O)C(C)(C)[C@@H]5CC[C@]43C)[C@@H]12` [TP-345, 2-Cyano-3-oxolupa-1,20(29)-dien-28-onitrile] the value was 10 to 160 nM.
For `CC1(C)CC[C@]2(C(=O)NCC(F)(F)F)CC[C@]3(C)[C@H](C(=O)C=C4[C@@]5(C)C=C(C#N)C(=O)C(C)(C)[C@@H]5CC[C@]43C)[C@@H]2C1` [TP-500, reference compound], in data set [1], the “concentration in the brain” value is on record as “significantly higher concentration in the brain than TP-319”.

By IC50 is commonly meant the concentration at which inhibition is half-maximal.

(Values after US8778990B2, “Betulinic acid derivatives and methods of use thereof” (Trustees of Dartmouth College, priority 2008, dated 2014).)
